{"source": "ChEMBL document CHEMBL5705893", "about": "“Targeting the mitotic checkpoint for cancer therapy with NMS-P715, an inhibitor of MPS1 kinase” (Cancer Res, 2010)", "key": {"T98G": {"tested_on": "T98G", "assay": "Antiproliferative activity against human T98G cells assessed as inhibition of cell growth incubated for 72 hrs by celltiter-glo assay", "type": "functional, cell-based"}, "[1]": {"molecular_target": "Tyrosine-protein kinase SYK (Homo sapiens, UniProt P43405)", "description": "Inhibition of recombinant SYK (unknown origin)"}, "SN12C": {"tested_on": "SN12C", "assay": "Antiproliferative activity against human SN12C cells assessed as inhibition of cell growth incubated for 72 hrs by celltiter-glo assay", "type": "functional, cell-based"}, "NCI-H23": {"tested_on": "NCI-H23", "assay": "Antiproliferative activity against human NCI-H23 cells assessed as inhibition of cell growth incubated for 72 hrs by celltiter-glo assay", "type": "functional, cell-based", "conditions": "NCI-H23, 72 h"}, "U2OS [2]": {"tested_on": "U2OS", "assay": "Antiproliferative activity against human U2OS cells assessed as inhibition of cell growth incubated for 72 hrs by celltiter-glo assay", "type": "functional, cell-based"}, "[3]": {"assay": "Antiproliferative activity against human CL-11 cells assessed as inhibition of cell growth incubated for 72 hrs by celltiter-glo assay", "type": "functional, cell-based", "conditions": "CL-11, 72 h"}, "COLO 320": {"tested_on": "COLO 320", "assay": "Antiproliferative activity against human COLO 320 cells assessed as inhibition of cell growth incubated for 72 hrs by celltiter-glo assay", "type": "functional, cell-based", "conditions": "COLO 320, 72 h"}, "U2OS [4]": {"tested_on": "U2OS", "assay": "Induction of mitotic arrest in human U2OS cells expressing YFP-alpha-tubulin assessed as mitotic index at 1 micromol/L in presence of MG132 by time-lapse microscopic analysis", "type": "functional, cell-based", "conditions": "dose 1.0 µmol/L"}, "Hs-578T": {"tested_on": "Hs-578T", "assay": "Antiproliferative activity against human Hs-578T cells assessed as inhibition of cell growth incubated for 72 hrs by celltiter-glo assay", "type": "functional, cell-based"}, "A2780 [5]": {"tested_on": "A2780", "assay": "Cell cycle arrest in human A2780 cells assessed as accumulation of cells at sub-G1 phase at 0.2 to 1 micromol/L incubated for 72 hrs by FACS/PI staining based flow cytometric analysis", "type": "functional", "conditions": "dose 0.2-1 µmol/L"}, "HCT-15": {"tested_on": "HCT-15", "assay": "Antiproliferative activity against human HCT-15 cells assessed as inhibition of cell growth incubated for 72 hrs by celltiter-glo assay", "type": "functional, cell-based", "conditions": "HCT-15, 72 h"}, "A-431": {"tested_on": "A-431", "assay": "Antiproliferative activity against human A-431 cells assessed as inhibition of cell growth incubated for 72 hrs by celltiter-glo assay", "type": "functional, cell-based", "conditions": "A-431, 72 h"}, "[6]": {"molecular_target": "Tyrosine-protein kinase Lck (Homo sapiens, UniProt P06239)", "sequence (P06239 whole entry)": "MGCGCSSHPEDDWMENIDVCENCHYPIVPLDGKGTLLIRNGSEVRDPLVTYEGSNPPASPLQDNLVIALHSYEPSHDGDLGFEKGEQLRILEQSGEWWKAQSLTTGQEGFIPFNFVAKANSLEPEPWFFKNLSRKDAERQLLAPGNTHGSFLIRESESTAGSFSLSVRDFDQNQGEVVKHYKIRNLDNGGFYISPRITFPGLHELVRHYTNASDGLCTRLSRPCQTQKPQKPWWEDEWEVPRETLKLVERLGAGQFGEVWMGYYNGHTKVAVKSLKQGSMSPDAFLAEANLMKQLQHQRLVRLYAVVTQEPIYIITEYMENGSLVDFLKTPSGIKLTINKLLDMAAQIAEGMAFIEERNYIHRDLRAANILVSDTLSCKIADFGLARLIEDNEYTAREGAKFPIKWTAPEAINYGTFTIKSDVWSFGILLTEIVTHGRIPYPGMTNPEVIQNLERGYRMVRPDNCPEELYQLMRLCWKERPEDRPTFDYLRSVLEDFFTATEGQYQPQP", "assay": "Inhibition of recombinant LCK (unknown origin)"}, "U2OS [7]": {"tested_on": "U2OS", "assay": "Induction of mitotic arrest in human U2OS cells expressing YFP-alpha-tubulin assessed as reduction in mitotic-phase length at 1 micromol/L by time-lapse microscopic analysis", "type": "functional, cell-based", "conditions": "dose 1.0 µmol/L"}, "[8]": {"molecular_target": "Mitogen-activated protein kinase 14 (Homo sapiens, UniProt Q16539)", "sequence (Q16539 whole entry)": "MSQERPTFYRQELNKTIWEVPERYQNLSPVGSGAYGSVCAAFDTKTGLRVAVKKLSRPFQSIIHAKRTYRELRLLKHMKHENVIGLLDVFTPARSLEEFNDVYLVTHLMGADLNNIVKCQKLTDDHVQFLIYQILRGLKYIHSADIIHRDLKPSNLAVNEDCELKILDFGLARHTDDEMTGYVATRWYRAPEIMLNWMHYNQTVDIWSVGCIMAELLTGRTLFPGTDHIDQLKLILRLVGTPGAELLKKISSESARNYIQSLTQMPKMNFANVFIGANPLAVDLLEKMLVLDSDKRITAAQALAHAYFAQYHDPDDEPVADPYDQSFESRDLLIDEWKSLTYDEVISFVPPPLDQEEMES", "assay": "Inhibition of recombinant P38alpha (unknown origin)"}, "SF-268": {"tested_on": "SF-268", "assay": "Antiproliferative activity against human SF-268 cells assessed as inhibition of cell growth incubated for 72 hrs by celltiter-glo assay", "type": "functional, cell-based", "conditions": "SF-268, 72 h"}, "CCRF-CEM": {"tested_on": "CCRF-CEM", "assay": "Antiproliferative activity against human CCRF-CEM cells assessed as inhibition of cell growth incubated for 72 hrs by celltiter-glo assay", "type": "functional, cell-based"}, "[9]": {"assay": "Antiproliferative activity against human RPMI 8226/ADR cells assessed as inhibition of cell growth incubated for 72 hrs by celltiter-glo assay", "type": "functional, cell-based"}, "A498": {"tested_on": "A498", "assay": "Antiproliferative activity against human A498 cells assessed as inhibition of cell growth incubated for 72 hrs by celltiter-glo assay", "type": "functional, cell-based", "conditions": "A498, 72 h"}, "OVCAR-3": {"tested_on": "OVCAR-3", "assay": "Antiproliferative activity against human OVCAR-3 cells assessed as inhibition of cell growth incubated for 72 hrs by celltiter-glo assay", "type": "functional, cell-based", "conditions": "OVCAR-3, 72 h"}, "Focal adhesion kinase 1": {"molecular_target": "Focal adhesion kinase 1 (Homo sapiens, UniProt Q05397)", "sequence (Q05397 whole entry)": "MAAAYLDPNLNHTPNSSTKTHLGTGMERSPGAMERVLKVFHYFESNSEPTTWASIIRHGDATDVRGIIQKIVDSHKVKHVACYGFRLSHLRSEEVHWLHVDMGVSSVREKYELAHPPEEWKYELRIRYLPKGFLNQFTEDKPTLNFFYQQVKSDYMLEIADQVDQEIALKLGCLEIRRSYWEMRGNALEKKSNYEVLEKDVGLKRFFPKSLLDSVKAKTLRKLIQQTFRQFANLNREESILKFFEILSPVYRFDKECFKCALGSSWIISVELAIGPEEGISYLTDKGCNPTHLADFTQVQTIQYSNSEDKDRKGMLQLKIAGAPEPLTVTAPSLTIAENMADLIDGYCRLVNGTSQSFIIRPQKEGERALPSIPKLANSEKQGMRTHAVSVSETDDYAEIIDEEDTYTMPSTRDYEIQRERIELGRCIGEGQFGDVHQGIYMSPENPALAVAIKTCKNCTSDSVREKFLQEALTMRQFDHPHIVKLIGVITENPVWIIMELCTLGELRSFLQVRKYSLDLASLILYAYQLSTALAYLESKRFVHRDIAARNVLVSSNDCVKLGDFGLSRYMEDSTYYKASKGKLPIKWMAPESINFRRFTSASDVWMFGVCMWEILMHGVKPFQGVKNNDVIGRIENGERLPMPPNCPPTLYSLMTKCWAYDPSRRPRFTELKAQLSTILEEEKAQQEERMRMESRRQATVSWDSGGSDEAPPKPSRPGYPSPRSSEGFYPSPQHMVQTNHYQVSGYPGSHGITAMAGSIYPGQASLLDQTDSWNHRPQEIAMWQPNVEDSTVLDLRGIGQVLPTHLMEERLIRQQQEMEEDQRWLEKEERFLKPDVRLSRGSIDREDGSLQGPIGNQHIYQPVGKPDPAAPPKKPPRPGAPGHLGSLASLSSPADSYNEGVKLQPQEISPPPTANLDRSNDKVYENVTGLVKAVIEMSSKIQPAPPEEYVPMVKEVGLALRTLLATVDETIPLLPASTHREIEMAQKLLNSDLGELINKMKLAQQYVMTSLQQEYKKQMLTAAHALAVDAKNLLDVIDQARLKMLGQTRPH", "assay": "Inhibition of recombinant FAK (unknown origin)"}, "NCI-H2126": {"tested_on": "NCI-H2126", "assay": "Antiproliferative activity against human NCI-H2126 cells assessed as inhibition of cell growth incubated for 72 hrs by celltiter-glo assay", "type": "functional, cell-based", "conditions": "NCI-H2126, 72 h"}, "T84": {"tested_on": "T84", "assay": "Antiproliferative activity against human T84 cells assessed as inhibition of cell growth incubated for 72 hrs by celltiter-glo assay", "type": "functional, cell-based", "conditions": "T84, 72 h"}, "SW48": {"tested_on": "SW48", "assay": "Antiproliferative activity against human SW48 cells assessed as inhibition of cell growth incubated for 72 hrs by celltiter-glo assay", "type": "functional, cell-based", "conditions": "SW48, 72 h"}, "SW1417": {"tested_on": "SW1417", "assay": "Antiproliferative activity against human SW1417 cells assessed as inhibition of cell growth incubated for 72 hrs by celltiter-glo assay", "type": "functional, cell-based", "conditions": "SW1417, 72 h"}, "[10]": {"molecular_target": "ALK tyrosine kinase receptor (Homo sapiens, UniProt Q9UM73)", "assay": "Inhibition of recombinant ALK (unknown origin)"}, "[11]": {"molecular_target": "RAC-alpha serine/threonine-protein kinase (Homo sapiens, UniProt P31749)", "sequence (P31749 whole entry)": "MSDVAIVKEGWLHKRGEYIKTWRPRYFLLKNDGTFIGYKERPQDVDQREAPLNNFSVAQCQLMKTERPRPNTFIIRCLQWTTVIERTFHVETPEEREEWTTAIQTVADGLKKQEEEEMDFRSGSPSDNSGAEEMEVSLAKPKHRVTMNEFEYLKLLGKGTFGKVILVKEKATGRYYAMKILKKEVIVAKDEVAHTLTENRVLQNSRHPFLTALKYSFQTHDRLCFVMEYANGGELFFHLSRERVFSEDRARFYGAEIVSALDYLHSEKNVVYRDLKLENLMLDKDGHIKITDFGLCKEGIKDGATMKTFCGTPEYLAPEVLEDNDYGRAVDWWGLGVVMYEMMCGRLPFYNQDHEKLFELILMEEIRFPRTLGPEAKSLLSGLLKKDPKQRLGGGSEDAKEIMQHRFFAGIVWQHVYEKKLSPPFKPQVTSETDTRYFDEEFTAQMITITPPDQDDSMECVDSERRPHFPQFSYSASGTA", "assay": "Inhibition of recombinant AKT1 (unknown origin)"}, "LP-1": {"tested_on": "LP-1", "assay": "Antiproliferative activity against human LP-1 cells assessed as inhibition of cell growth incubated for 72 hrs by celltiter-glo assay", "type": "functional, cell-based", "conditions": "LP-1, 72 h"}, "A-375": {"tested_on": "A-375", "assay": "Antitumor activity against human A-375 cells xenografted in Athymic nu-nu nude mouse assessed as tumor growth inhibition at 100 mg/kg, po measured after 10 days", "type": "functional", "conditions": "A-375, 240 h, time 10 day, read-out: TGI"}, "OVCAR-8": {"tested_on": "OVCAR-8", "assay": "Antiproliferative activity against human OVCAR-8 cells assessed as inhibition of cell growth incubated for 72 hrs by celltiter-glo assay", "type": "functional, cell-based", "conditions": "OVCAR-8, 72 h"}, "SU-DHL10": {"tested_on": "SU-DHL10", "assay": "Antiproliferative activity against human SU-DHL-10 cells assessed as inhibition of cell growth incubated for 72 hrs by celltiter-glo assay", "type": "functional, cell-based", "conditions": "SU-DHL10, 72 h"}, "NHDF": {"tested_on": "NHDF", "assay": "Antiproliferative activity against human NHDF cells assessed as inhibition of cell growth incubated for 72 hrs by celltiter-glo assay", "type": "functional, cell-based"}, "TF-1": {"tested_on": "TF-1", "assay": "Antiproliferative activity against human TF-1 cells assessed as inhibition of cell growth incubated for 72 hrs by celltiter-glo assay", "type": "functional, cell-based", "conditions": "TF-1, 72 h"}, "[12]": {"molecular_target": "MAP kinase-activated protein kinase 2 (Homo sapiens, UniProt P49137)", "sequence (P49137 whole entry)": "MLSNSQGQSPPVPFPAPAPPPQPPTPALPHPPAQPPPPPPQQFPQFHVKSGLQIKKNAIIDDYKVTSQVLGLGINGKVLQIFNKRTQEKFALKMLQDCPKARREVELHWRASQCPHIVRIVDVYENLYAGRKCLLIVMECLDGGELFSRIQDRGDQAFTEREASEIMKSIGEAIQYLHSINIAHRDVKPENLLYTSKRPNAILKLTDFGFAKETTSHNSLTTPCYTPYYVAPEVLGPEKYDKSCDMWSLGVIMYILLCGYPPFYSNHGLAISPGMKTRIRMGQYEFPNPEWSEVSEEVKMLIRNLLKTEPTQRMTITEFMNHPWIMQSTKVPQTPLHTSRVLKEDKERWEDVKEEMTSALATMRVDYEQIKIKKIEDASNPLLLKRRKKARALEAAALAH", "assay": "Inhibition of recombinant MAPKAPK2 (unknown origin)"}, "PC-3": {"tested_on": "PC-3", "assay": "Antiproliferative activity against human PC-3 cells assessed as inhibition of cell growth incubated for 72 hrs by celltiter-glo assay", "type": "functional, cell-based", "conditions": "PC-3, 72 h"}, "RO82-W-1": {"tested_on": "RO82-W-1", "assay": "Antiproliferative activity against human RO82-W-1 cells assessed as inhibition of cell growth incubated for 72 hrs by celltiter-glo assay", "type": "functional, cell-based", "conditions": "RO82-W-1, 72 h"}, "A2780 [13]": {"tested_on": "A2780", "assay": "Antitumor activity against human A2780 cells xenografted in Athymic nu-nu nude mouse assessed as reduction in histone H3 phosphorylation at 100 mg/kg, po administered for 2 days and measured after 6 hrs by Western blot analysis", "type": "functional, organism-based", "conditions": "time 54.0 hrs"}, "786-0": {"tested_on": "786-0", "assay": "Antiproliferative activity against human 786-0 cells assessed as inhibition of cell growth incubated for 72 hrs by celltiter-glo assay", "type": "functional, cell-based", "conditions": "786-0, 72 h"}, "[14]": {"molecular_target": "Mast/stem cell growth factor receptor Kit (Homo sapiens, UniProt P10721)", "sequence (P10721 whole entry)": "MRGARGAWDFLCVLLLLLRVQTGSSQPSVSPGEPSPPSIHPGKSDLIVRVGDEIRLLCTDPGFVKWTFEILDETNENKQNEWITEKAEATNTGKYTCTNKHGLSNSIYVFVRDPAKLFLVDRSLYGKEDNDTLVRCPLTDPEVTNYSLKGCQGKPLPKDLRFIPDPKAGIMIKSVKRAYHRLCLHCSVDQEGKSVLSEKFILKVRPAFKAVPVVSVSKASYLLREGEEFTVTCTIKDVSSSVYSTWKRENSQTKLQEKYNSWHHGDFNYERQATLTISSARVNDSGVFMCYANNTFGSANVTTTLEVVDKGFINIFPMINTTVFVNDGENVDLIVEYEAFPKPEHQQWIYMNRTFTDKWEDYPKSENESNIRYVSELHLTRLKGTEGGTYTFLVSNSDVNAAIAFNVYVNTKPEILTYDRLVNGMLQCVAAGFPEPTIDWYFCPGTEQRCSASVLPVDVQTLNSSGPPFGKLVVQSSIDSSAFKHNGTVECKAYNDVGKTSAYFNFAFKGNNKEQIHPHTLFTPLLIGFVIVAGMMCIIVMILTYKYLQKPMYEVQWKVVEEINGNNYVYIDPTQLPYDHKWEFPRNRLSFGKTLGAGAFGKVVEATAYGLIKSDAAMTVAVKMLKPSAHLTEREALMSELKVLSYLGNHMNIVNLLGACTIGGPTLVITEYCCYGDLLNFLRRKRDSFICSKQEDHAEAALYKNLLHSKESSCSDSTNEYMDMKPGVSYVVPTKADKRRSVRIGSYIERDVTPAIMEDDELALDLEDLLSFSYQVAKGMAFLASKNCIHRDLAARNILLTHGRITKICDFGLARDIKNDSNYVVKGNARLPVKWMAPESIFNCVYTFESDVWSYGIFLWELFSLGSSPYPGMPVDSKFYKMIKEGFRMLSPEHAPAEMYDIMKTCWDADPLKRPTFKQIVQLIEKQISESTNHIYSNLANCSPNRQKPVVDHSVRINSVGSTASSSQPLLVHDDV", "assay": "Inhibition of recombinant KIT (unknown origin)"}, "HOP-92": {"tested_on": "HOP-92", "assay": "Antiproliferative activity against human HOP-92 cells assessed as inhibition of cell growth incubated for 72 hrs by celltiter-glo assay", "type": "functional, cell-based", "conditions": "HOP-92, 72 h"}, "[15]": {"assay": "Inhibition of recombinant PDGFR (unknown origin)", "design": "species or system Homo sapiens"}, "[16]": {"molecular_target": "Serine/threonine-protein kinase Chk1 (Homo sapiens, UniProt O14757)", "sequence (O14757 whole entry)": "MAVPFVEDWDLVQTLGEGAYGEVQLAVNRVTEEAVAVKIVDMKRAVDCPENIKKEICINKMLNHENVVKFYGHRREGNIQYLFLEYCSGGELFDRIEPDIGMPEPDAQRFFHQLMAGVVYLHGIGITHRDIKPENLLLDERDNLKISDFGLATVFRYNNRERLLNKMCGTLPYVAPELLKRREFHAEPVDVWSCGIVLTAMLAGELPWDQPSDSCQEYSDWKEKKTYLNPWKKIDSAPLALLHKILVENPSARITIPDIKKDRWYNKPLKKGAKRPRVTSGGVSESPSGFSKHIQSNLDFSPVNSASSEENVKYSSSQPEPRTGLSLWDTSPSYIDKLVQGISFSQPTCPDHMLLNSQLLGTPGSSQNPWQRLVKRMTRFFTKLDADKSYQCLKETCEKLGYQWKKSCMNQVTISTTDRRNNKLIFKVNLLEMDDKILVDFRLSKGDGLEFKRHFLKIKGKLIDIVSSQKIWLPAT", "assay": "Inhibition of recombinant CHK1 (unknown origin)"}}, "note": "Activity calls are given as the source filed them. The rule behind the calls is not given here.", "data": [{"smiles": "CCc1cccc(CC)c1NC(=O)c1nn(C)c2c1CCc1cnc(Nc3ccc(C(=O)NC4CCN(C)CC4)cc3OC(F)(F)F)nc1-2", "values": [{"measurement": "IC50", "setting": "T98G", "result": 0.203, "unit": "µM"}, {"measurement": "IC50", "setting": "[1]", "result": "> 10", "unit": "µM"}, {"measurement": "IC50", "setting": "SN12C", "result": 1.23, "unit": "µM"}, {"measurement": "IC50", "setting": "NCI-H23", "result": 1.22, "unit": "µM"}, {"measurement": "IC50", "setting": "U2OS [2]", "result": 2.09, "unit": "µM"}, {"measurement": "IC50", "setting": "[3]", "result": 1.32, "unit": "µM"}, {"measurement": "IC50", "setting": "COLO 320", "result": 1.28, "unit": "µM"}, {"measurement": "Activity", "setting": "U2OS [4]", "result": "inactive"}, {"measurement": "IC50", "setting": "Hs-578T", "result": 6.64, "unit": "µM"}, {"measurement": "Activity", "setting": "A2780 [5]", "result": "Active"}, {"measurement": "IC50", "setting": "HCT-15", "result": 0.232, "unit": "µM"}, {"measurement": "IC50", "setting": "A-431", "result": 0.469, "unit": "µM"}, {"measurement": "IC50", "setting": "[6]", "result": "> 10", "unit": "µM"}, {"measurement": "Activity", "setting": "U2OS [7]", "result": "Active"}, {"measurement": "IC50", "setting": "[8]", "result": "> 10", "unit": "µM"}, {"measurement": "IC50", "setting": "SF-268", "result": 1.37, "unit": "µM"}, {"measurement": "IC50", "setting": "CCRF-CEM", "result": 1.43, "unit": "µM"}, {"measurement": "IC50", "setting": "[9]", "result": 1.49, "unit": "µM"}, {"measurement": "IC50", "setting": "A498", "result": 1.71, "unit": "µM"}, {"measurement": "IC50", "setting": "OVCAR-3", "result": 6.2, "unit": "µM"}, {"measurement": "IC50", "setting": "Focal adhesion kinase 1", "result": "> 10", "unit": "µM"}, {"measurement": "IC50", "setting": "NCI-H2126", "result": 4.63, "unit": "µM"}, {"measurement": "IC50", "setting": "T84", "result": 10, "unit": "µM"}, {"measurement": "IC50", "setting": "SW48", "result": 0.551, "unit": "µM"}, {"measurement": "IC50", "setting": "SW1417", "result": 8.84, "unit": "µM"}, {"measurement": "IC50", "setting": "[10]", "result": "> 10", "unit": "µM"}, {"measurement": "IC50", "setting": "[11]", "result": "> 10", "unit": "µM"}, {"measurement": "IC50", "setting": "LP-1", "result": 3.48, "unit": "µM"}, {"measurement": "inhibition in vivo at 100 mg/kg", "setting": "A-375", "result": 43, "unit": "%"}, {"measurement": "IC50", "setting": "OVCAR-8", "result": 1.21, "unit": "µM"}, {"measurement": "IC50", "setting": "SU-DHL10", "result": 1.58, "unit": "µM"}, {"measurement": "IC50", "setting": "NHDF", "result": 10, "unit": "µM"}, {"measurement": "IC50", "setting": "TF-1", "result": 6.53, "unit": "µM"}, {"measurement": "IC50", "setting": "[12]", "result": "> 10", "unit": "µM"}, {"measurement": "IC50", "setting": "PC-3", "result": 1.99, "unit": "µM"}, {"measurement": "IC50", "setting": "RO82-W-1", "result": 9.31, "unit": "µM"}, {"measurement": "Activity", "setting": "A2780 [13]", "result": "Active"}, {"measurement": "IC50", "setting": "786-0", "result": 0.917, "unit": "µM"}, {"measurement": "IC50", "setting": "[14]", "result": "> 10", "unit": "µM"}, {"measurement": "IC50", "setting": "HOP-92", "result": 2.18, "unit": "µM"}, {"measurement": "IC50", "setting": "[15]", "result": "> 10", "unit": "µM"}, {"measurement": "IC50", "setting": "[16]", "result": "> 10", "unit": "µM"}]}]}
